Nine molecules from patent US9957539B2, “Method for using hexenol glycosyl transferase” (SUNTORY HOLDINGS LIMITED, priority 2013, dated 2018) can be followed below.

One assay relates to CsUGTC30. In words: Specificity of CsUGTC30 for sugar acceptors (relative activity of transglucosylation). The format is biochemical, Camellia sinensis. The note with it: UDP-glucose as donor; 30 minutes at 30° C.; activity on geraniol is set to 100% (FIG. 8). The source says: Standard enzyme reaction conditions are as follows.
Next, to clarify the substrate specificity of CsUGTC30, geraniol, linalool, eugenol, benzyl alcohol, 2-phenylethanol, quercetin and cyanidin were each used as a substrate to determine the relative activity of transglucosylation with the above enzyme and under the above enzyme reaction conditions.

Assay [1] can be described thus: Hexenol glycosylation activity of recombinant UGT enzymes (enzyme reaction with UDP-glucose, LC-MS analysis of product). The assay is classed as biochemical. The note with it: 2 mM UDP-glucose, […] sugar acceptor substrate, pH 7.5, 30° C. for 1 hour; product detected by LC-MS against reference standard. The procedure:
Standard enzyme reaction conditions are as follows. […] The enzyme reaction solution (5 μl) was analyzed by LC-MS under the following conditions. LC Conditions • Column: CAPCELL PAK C18-UG120 (2.0 mm I.D.×150 mm) • Mobile phase: A: […] (m/z 261, 297, 307) Since green leaf volatiles are found in a wide range of land plants, a search was conducted for UGTs causing glycosylation of green leaf volatiles derived from other plant lines on the basis of homology with the sequence of Camellia sinensis Cs_UGT_C30.

Regarding `OCCc1ccccc1` [2-phenylethanol], in the assay with CsUGTC30, the “relative transglucosylation activity of CsUGTC30 on the substrate (sugar acceptor)” value (“relative transglucosylation activity” for short) is on record as “transglycosylation activity”.

Turning to `OCc1ccccc1` [benzyl alcohol], the “relative transglucosylation activity” value with CsUGTC30 was “second highest activity”. On the same count and under the same terms, next, `C=CCc1ccc(O)c(OC)c1` [eugenol]: “second highest activity”; `CC(C)=CCC/C(C)=C/CO` [geraniol]: “highest activity”. On the same count and under the same terms, in the case of `CC/C=C\CCO` [hexenol, cis-3-hexen-1-ol] it was “at the same level”; in that of `C=CC(C)(O)CCC=C(C)C` (stereo not drawn) [linalool], “transglycosylation activity”.

For `O=c1c(O)c(-c2ccc(O)c(O)c2)oc2cc(O)cc(O)c12` [quercetin], in the assay with CsUGTC30, the “relative transglucosylation activity” value is “no transglycosylation activity”.

B1: Cs_UGT_C30: Camellia sinensis glycosyltransferase, amino acid sequence SEQ ID NO: 2, expressed His-tagged in E. coli (protein, listed as Camellia sinensis)
chain: MGSRKQPHAVCVPFPAQGHINPMMQLAKLLHSRGFYITFVNTEFNHRRLLQSKGPEFLKGCADFQFESIPDGLPPSDRDATQDPPTLCIAMRDNCLDPFRVLLKKLNNNNNSIASRQVPGVTCVVSDGAMNFAMKAAEEAGIPEVQFWTASACGFMGYLHYPQLVQRGIFPFKDESFQSDGSLDTTIDWIPGMRNIRLKDMPSFIRTTDPNDILFNYLSEEVQNCLKASAIIFNTFDTLEHQVLQAIASKFHNIYTIGPLSLLSKQVIDGEFKSLNSSLWKEDTKCLQWLDTKEPNSVVYVNYGSITVMTDQHLKEFAWGLANSKHPFLWIVRPDIVMGDSAILPEHFVEETKDRGLLVSWCPQEQVLSHPSIGVFLTHCGWNSTLESICGGVPIICWPFFAEQQTNCRYACTEWGIGMEVNHDVKRNEIVALINEMLEGDKGKQMRKKALKLKKEAEEATDVGGLSYNNFDRLIKEALHYCEQY
modifications: His tag
Take B1: the “glycosylation activity on cis-3-hexenol (generation of cis-3-hexenyl monoglucoside)” value in assay [1] is “glycosylation activity on cis-3-hexenol”.

B2: Cs_UGT85like_C1: Camellia sinensis glycosyltransferase, amino acid sequence SEQ ID NO: 4, expressed His-tagged in E. coli (protein, listed as Camellia sinensis)
chain: MAKLHFFFFPVMAQGHMIPTLDMAKLFASHGVKATIITTPLNAPYFTRSIQRTHHSISVLTLKFPAVEAGLVEGCESVDQIPSPDMLPNFLKATTMLQDPLERLLQDSRPDCLVADMFFPWATHVAAKFNIPRLVFHGTGFFTLCASENLRLYMPQASVSSDDEPFLVPNLPHKIMLTRSQLPENERCDTETGLSTMLKQVKETELTSYGVIVNSFYELEPDYADYYRNVLGRRAWHIGPVSLCNREVEDKAQRGKESAIDEVECLKWLNSKKPNSVIYVCFGSLGDFTASQLFELAMGLEASGQQFIWVVRKGKIEEDGDEKRLPEEFEERMKDKGLIIRGWAPQVLILDHESIGGFVTHCGWNSILEGVCAGVPMVTWPRFAEQFYNEKLVTEVLRIGVGVGARQWQIGAGSDCIKGETIAKAVKRVMEAGEEAEGMRTRARAAKDMAKKAVEEGGSSYSDLNALIQEMSS
modifications: His tag
With B2, in assay [1], the “glycosylation activity on cis-3-hexenol (generation of cis-3-hexenyl monoglucoside)” value is given as “glycosylation activity on cis-3-hexenol”.
